Key:
[1] = test system: RKO p27 or p21 uninduced (proliferating) colon adenocarcinoma cells; assay: Alamar Blue cell viability assay, RKO p27 or p21 uninduced (proliferating); assay type: cell-based; settings: Homo sapiens, RKOp27, 72 h, Table B2, anti-proliferative/cytotoxic activity, read-out: −log EC50 RKO p27 or p21 uninduced (proliferating) (converted)
Method: The anti-proliferative/cytotoxic activity of the compounds described herein can be tested on subclones of RKO human colon adenocarcinoma cells (Schmidt et al., Oncogene 19, 2423-2429; 2000) using the Alamar Blue cell viability assay (described in O'Brien et al. Eur J Biochem 267, 5421-5426, 2000). The compounds are dissolved as 10 mM solutions in DMSO and subsequently diluted in semi-logarithmic steps. DMSO dilutions are further diluted 1:100 into Dulbecco's modified Eagle's medium (DMEM) containing 10% fetal calf serum to a final concentration twice as much as the final concentration in the test. RKO subclones are seeded into 96 well flat bottom plates at a density of 4000 cells per well in a volume of 50 μl per well. 24 hours after seeding the 50 μl each of the compound dilutions in DMEM medium are added into each well of the 96 well plate. Each compound dilution is tested as triplicates. Wells containing untreated control cells are filled with 50 μl DMEM medium containing 1% DMSO. The cells are then incubated with the substances for 72 hours at 37° C. in a humidified atmosphere containing 5% carbon dioxide. To determine the viability of the cells, 10 μl of an Alamar Blue solution (Biosource) are added and the fluorescence is measured at an extinction of 544 nm and an emission of 590 nm. For the calculation of the cell viability the emission value from untreated cells is set as 100% viability and the emission rates of treated cells are set in relation to the values of untreated cells. Viabilities are expressed as % values. The Graphpad Prism program is used for the calculation of EC50 values for anti-proliferative/cytotoxic activity out of the obtained dose-response curves.
(§1) To determine the cell cycle specific mode of action, subclones of RKO colon adenocarcinoma cells (RKOp21 or RKOp27 as described by Schmidt et al. in Oncogene 19, 2423-2429; 2000) are seeded into 96 well flat bottom plates at a density of 16000 cells per well in a volume of 50 μl per well in DMEM growth medium with 10% FCS containing 10 μM Ponasterone A. 24 hours after seeding the 50 μl each of the compound dilutions in DMEM medium are added into each well of the 96-well plate. Each compound dilution is tested as triplicates. Wells containing untreated control cells are filled with 50 μl DMEM medium containing 1% DMSO. The cells are then incubated with the substances for 72 hours at 37° C. in a humidified atmosphere containing 5% carbon dioxide. To determine the viability of the cells, 10 μl of an Alamar Blue solution (Biosource) are added and the fluorescence is measured at an extinction of 544 nm and an emission of 590 nm. For the calculation of the cell viability the emission value from untreated cells is set as 100% viability and the emission rates of treated cells are set in relation to the values of untreated cells. Viabilities are expressed as % values. The Graphpad Prism program (GraphPad Software, Inc) is used for the calculation of EC50 values out of the obtained dose-response curves. Viability is compared of proliferating cells grown in the absence of the inducer Ponasterone A, versus viability of cells arrested by the expression of ectopic p27Kip1 induced by Ponasterone A.
(§2) Representative values for anti-proliferation/cytotoxicity [measured as −log EC50 (mol/l)] determined in the aforementioned assays follow from the following tables B1, B2 and B3, in which the numbers of the compounds correspond to the numbers of the examples.

[2] = test system: RKO p27 or p21 induced (arrested) colon adenocarcinoma cells; assay: Alamar Blue cell viability assay, RKO p27 or p21 induced (arrested); assay type: cell-based; settings: Homo sapiens, RKOp27, Table B2, cells arrested by Ponasterone A, 72 hours, read-out: −log EC50 RKO p27 or p21 induced (arrested) (converted)
Method: as §1, §2

Row | Structure (SMILES) | EC50 [2] | EC50 [1]
1 | C=CCN(C)CCN1C(=O)N2[C@H](c3cccc(O)c3)c3[nH]c4ccc(Cl)cc4c3C[C@@]2(C)C1=O (racemic) [Example 117, (3aSR,10RS)-2-[2-(Allyl-methyl-amino)-ethyl]-6-chloro-10-(3-hydroxy-phenyl)-3a-methyl-3a,4,9,10-tetrahydro-2,9,10a-triaza-cyclopenta[b]fluorene-1,3-dione] | ≥ 0.316 µM | ≤ 39.8 nM
2 | C[C@@]12Cc3c([nH]c4ccc(Cl)cc34)[C@@H](c3cccc(O)c3)N1C(=O)N(CCNC1CCC1)C2=O (racemic) [Example 103, (3aSR,10RS)-6-Chloro-2-(2-cyclobutylamino-ethyl)-10-(3-hydroxy-phenyl)-3a-methyl-3a,4,9,10-tetrahydro-2,9,10a-triaza-cyclopenta[b]fluorene-1,3-dione] | ≥ 3.16 µM | ≤ 39.8 nM
3 | COc1ccc2[nH]c3c(c2c1)C[C@@]1(C)C(=O)N(CCCN2CCC2)C(=O)N1[C@@H]3c1cccc(O)c1 (racemic) [Example 87, (3aSR,10RS)-2-(3-Azetidin-1-yl-propyl)-10-(3-hydroxy-phenyl)-6-methoxy-3a-methyl-3a,4,9,10-tetrahydro-2,9,10a-triaza-cyclopenta[b]fluorene-1,3-dione] | ≥ 3.16 µM | ≤ 39.8 nM
4 | COc1ccc2[nH]c3c(c2c1)C[C@@]1(C)C(=O)N(CCCNC(C)C)C(=O)N1[C@@H]3c1cccc(O)c1 (racemic) [Example 67, (3aSR,10RS)-10-(3-Hydroxy-phenyl)-2-(3-isopropylamino-propyl)-6-methoxy-3a-methyl-3a,4,9,10-tetrahydro-2,9,10a-triaza-cyclopenta[b]fluorene-1,3-dione] | ≥ 3.16 µM | ≤ 39.8 nM
5 | CN(CCO)CCN1C(=O)N2[C@H](c3cccc(O)c3)c3[nH]c4ccc(Cl)cc4c3C[C@@]2(C)C1=O (racemic) [Example 126, (3aSR,10RS)-6-Chloro-2-{2-[(2-hydroxy-ethyl)-methyl-amino]-ethyl}-10-(3-hydroxy-phenyl)-3a-methyl-3a,4,9,10-tetrahydro-2,9,10a-triaza-cyclopenta[b]fluorene-1,3-dione] | ≥ 0.316 µM | ≤ 39.8 nM
6 | C=CCNCCN1C(=O)N2[C@H](c3cccc(O)c3)c3[nH]c4ccc(Cl)cc4c3C[C@@]2(C)C1=O (racemic) [Example 115, (3aSR,10RS)-2-(2-Allylamino-ethyl)-6-chloro-10-(3-hydroxy-phenyl)-3a-methyl-3a,4,9,10-tetrahydro-2,9,10a-triaza-cyclopenta[b]fluorene-1,3-dione] | ≥ 0.316 µM | ≤ 39.8 nM
7 | COc1ccc2[nH]c3c(c2c1)C[C@@]1(C)C(=O)N(CCCNCC(C)C)C(=O)N1[C@@H]3c1cccc(O)c1 (racemic) [Example 92, (3aSR,10RS)-10-(3-Hydroxy-phenyl)-2-(3-isobutylamino-propyl)-6-methoxy-3a-methyl-3a,4,9,10-tetrahydro-2,9,10a-triaza-cyclopenta[b]fluorene-1,3-dione] | ≥ 3.16 µM | ≤ 39.8 nM
8 | C[C@@]12Cc3c([nH]c4ccc(Cl)cc34)[C@@H](c3cccc(O)c3)N1C(=O)N(CCN1CCCCC1)C2=O (racemic) [Example 101, (3aSR,10RS)-6-Chloro-10-(3-hydroxy-phenyl)-3a-methyl-2-(2-piperidin-1-yl-ethyl)-3a,4,9,10-tetrahydro-2,9,10a-triaza-cyclopenta[b]fluorene-1,3-dione] | ≥ 3.16 µM | ≤ 39.8 nM
9 | C#CC(C)NCCCN1C(=O)N2[C@H](c3cccc(O)c3)c3[nH]c4ccc(Cl)cc4c3C[C@@]2(C)C1=O (mixture of isomers) [Example 136, (3aSR,10RS)-6-Chloro-10-(3-hydroxy-phenyl)-3a-methyl-2-[3-((R and S)1-methyl-prop-2-ynylamino)-propyl]-3a,4,9,10-tetrahydro-2,9,10a-triaza-cyclopenta[b]fluorene-1,3-dione] | ≥ 3.16 µM | ≤ 39.8 nM
10 | C[C@@]12Cc3c([nH]c4ccc(Cl)cc34)[C@@H](c3cccc(O)c3)N1C(=O)N(CCCCl)C2=O (racemic) [Example 57, (3aSR,10RS)-6-Chloro-2-(3-chloro-propyl)-10-(3-hydroxy-phenyl)-3a-methyl-3a,4,9,10-tetrahydro-2,9,10a-triaza-cyclopenta[b]fluorene-1,3-dione] | ≥ 0.316 µM | 39.8 to 251 nM
11 | Cn1ccc(NCCN2C(=O)N3[C@H](c4cccc(O)c4)c4[nH]c5ccc(Cl)cc5c4C[C@@]3(C)C2=O)n1 (racemic) [Example 125, (3aSR,10RS)-6-Chloro-10-(3-hydroyx-phenyl)-3a-methyl-2-[2-(1-methyl-1H-pyrazol-3-ylamino)-ethyl]-3a,4,9,10-tetrahydro-2,9,10a-triaza-cyclopenta[b]fluorene-1,3-dione] | ≥ 0.316 µM | 39.8 to 251 nM

More lines, main results first:

Row | EC50 [2] | Structure (SMILES) | EC50 [1]
12 | ≥ 3.16 µM | C=CCNCCCN1C(=O)N2[C@H](c3cccc(O)c3)c3[nH]c4ccc(Cl)cc4c3C[C@@]2(C)C1=O (racemic) [Example 139, (3aSR,10RS)-2-(3-Allylamino-propyl)-6-chloro-10-(3-hydroxy-phenyl)-3a-methyl-3a,4,9,10-tetrahydro-2,9,10a-triaza-cyclopenta[b]fluorene-1,3-dione] | ≤ 39.8 nM
13 | ≥ 0.316 µM | COc1ccc2[nH]c3c(c2c1)C[C@@]1(C)C(=O)N(CCCNCCO)C(=O)N1[C@@H]3c1cccc(O)c1 (racemic) [Example 145, (3aSR,10RS)-2-[3-(2-Hydroxy-ethylamino)-propyl]-10-(3-hydroxy-phenyl)-6-methoxy-3a-methyl-3a,4,9,10-tetrahydro-2,9,10a-triaza-cyclopenta[b]fluorene-1,3-dione] | ≤ 39.8 nM
14 | ≥ 0.316 µM | COc1ccc2[nH]c3c(c2c1)C[C@@]1(C)C(=O)N(CCCN(C)CCO)C(=O)N1[C@@H]3c1cccc(O)c1 (racemic) [Example 143, (3aSR,10RS)-2-{3[(2-Hydroxy-ethyl)-methyl-amino]-propyl}-10-(3-hydroxy-phenyl)-6-methoxy-3a-methyl-3a,4,9,10-tetrahydro-2,9,10a-triaza-cyclopenta[b]fluorene-1,3-dione] | ≤ 39.8 nM
15 | ≥ 3.16 µM | CCN(C)CCCN1C(=O)N2[C@H](c3cccc(O)c3)c3[nH]c4ccc(Cl)cc4c3C[C@@]2(C)C1=O (racemic) [Example 140, (3aSR,10RS)-6-Chloro-2-[3-(ethyl-methyl-amino)-propyl]-10-(3-hydroxy-phenyl)-3a-methyl-3a,4,9,10-tetrahydro-2,9,10a-triaza-cyclopenta[b]fluorene-1,3-dione] | ≤ 39.8 nM
16 | ≥ 0.316 µM | COc1ccc2[nH]c3c(c2c1)C[C@@]1(C)C(=O)N(CCCNCC(F)F)C(=O)N1[C@@H]3c1cccc(O)c1 (racemic) [Example 142, (3aSR,10RS)-2-[3-(2,2-Difluoro-ethylamino)-propyl]-10-(3-hydroxy-phenyl)-6-methoxy-3a-methyl-3a,4,9,10-tetrahydro-2,9,10a-triaza-cyclopenta[b]fluorene-1,3-dione] | 39.8 to 251 nM
17 | ≥ 3.16 µM | C[C@@]12Cc3c([nH]c4ccc(Cl)cc34)[C@@H](c3cccc(O)c3)N1C(=O)N(CCCN1CCC1)C2=O (racemic) [Example 141, (3aSR,10RS)-2-(3-Azetidin-1-yl-propyl)-6-chloro-10-(3-hydroxy-phenyl)-3a-methyl-3a,4,9,10-tetrahydro-2,9,10a-triaza-cyclopenta[b]fluorene-1,3-dione] | ≤ 39.8 nM

Source: patent US8530493B2, “Indolopyridines as Eg5 kinesin modulators” (4SC AG, priority 2006, dated 2013)
